Activity calls are given as the source filed them.
Legend:
[1] = Binding affinity to amyloid beta (1 to 42) fibrils by change in fluorescence at 100 uM after 10 mins
[2] = Binding affinity to amyloid beta (1 to 42) oligomers by change in fluorescence at 100 uM after 10 mins
[3] = Inhibition of amyloid beta (1 to 42) aggregation […] after 48 hrs by fluorescence imaging

| Structure (SMILES) | Activity [1] | Activity [2] | inhibition [3] |
| --- | --- | --- | --- |
| Nc1ccc(/N=N/c2ccc(-c3ccc(/N=N/c4c(S(=O)(=O)O)cc5cc(S(=O)(=O)O)c(/N=N/c6ccccc6)c(O)c5c4N)cc3)cc2)c(N)c1 | inactive | inactive |  |
| O=Cc1cccc(O)c1 | inactive | inactive |  |
| Nc1c(/N=N/c2ccc(-c3ccc(/N=N/c4cc(S(=O)(=O)O)c5ccccc5c4N)cc3)cc2)cc(S(=O)(=O)O)c2ccccc12 | Active | Active |  |
| CN(C)[C@@H]1C(O)=C(C(N)=O)C(=O)[C@@]2(O)C(O)=C3C(=O)c4c(O)cccc4[C@@](C)(O)[C@H]3C[C@@H]12 | inactive | inactive |  |
| CN(C)c1ccc2nc3ccc(N)cc3[s+]c2c1 | inactive | inactive |  |
| COc1cc(/C=C/C(=O)NCCCCNC(=O)/C=C/c2ccc(O)c(OC)c2)ccc1O | inactive | inactive |  |
| COc1ccc(C=O)cc1OC | inactive | inactive |  |
| O=C(O)c1cc(/N=N/c2ccc(-c3ccc(/N=N/c4ccc(O)c(C(=O)O)c4)cc3)cc2)ccc1O | inactive | inactive |  |
| COc1cc(/C=C/C(=O)O)ccc1O | Active | Active |  |
| O=C1C=Cc2ccccc2C1=O | Active | Active |  |
| NCCc1ccc(O)c(O)c1 | inactive | inactive |  |
| O=C1C=CC(=O)c2c(O)cccc21 | inactive | inactive |  |
| COc1ccc(C=O)cc1 | inactive | inactive |  |
| COc1cc(/C=C/C(=O)CC(=O)/C=C/c2ccc(O)c(OC)c2)ccc1O | inactive | inactive |  |
| Cc1ccc2[nH]c(C(=O)O)cc2c1 | Active | Active | inactive |
| O=C1c2c(O)cc(O)cc2O[C@H](c2ccc(O)c(O)c2)[C@H]1O | inactive | inactive |  |
| CN(C)c1ccc(N=Nc2ccccc2C(=O)O)cc1 | inactive | inactive |  |
| NCCc1c[nH]c2ccccc12 | Active | Active |  |
| CNc1ccc2nc3ccc(N)cc3[s+]c2c1 | inactive | inactive |  |
| COc1ccc(/C=C/c2cccc(/C=C/c3ccc(OC)c(OC)c3)c2)cc1OC | Active | Active |  |
| CN(C)c1ccc(N=Nc2ccccc2)cc1 | inactive | inactive |  |
| CC(C)OC(=O)C(C)(C)Oc1ccc(C(=O)c2ccc(Cl)cc2)cc1 | inactive | inactive |  |
| COc1cc(/C=C/C(=O)c2ccccc2)ccc1O | inactive | inactive |  |
| COc1cc(-c2ccc(/N=N/c3ccc4c(S(=O)(=O)O)cc(S(=O)(=O)O)c(N)c4c3O)c(OC)c2)ccc1/N=N/c1ccc2c(S(=O)(=O)O)cc(S(=O)(=O)O)c(N)c2c1O | inactive | inactive |  |
| CN(C)c1ccc(O)c2c1C[C@H]1C[C@H]3[C@H](N(C)C)C(O)=C(C(N)=O)C(=O)[C@@]3(O)C(O)=C1C2=O | inactive | inactive |  |
| CN(C)c1ccc(N=Nc2ccc(S(=O)(=O)O)cc2)cc1 | inactive | inactive |  |
| Oc1cc(O)c2c(c1)O[C@H](c1ccc(O)c(O)c1)[C@H](O)C2 | inactive | inactive |  |

| Structure (SMILES) | Activity [1] | Activity [2] | inhibition [3] |
| --- | --- | --- | --- |
| O=C(O[C@@H]1Cc2c(O)cc(O)cc2O[C@@H]1c1cc(O)c(O)c(O)c1)c1cc(O)c(O)c(O)c1 | inactive | inactive |  |
| O=C(O)/C=C/c1cccc(O)c1 | inactive | inactive |  |
| Oc1cc(O)c2c(c1)O[C@H](c1ccc(O)c(O)c1)[C@@H](O)C2 | inactive | inactive |  |
| COc1ccc(/C=C/C(=O)c2ccccc2)cc1 | inactive | inactive |  |
| O=c1oc2c(O)c(O)cc3c(=O)oc4c(O)c(O)cc1c4c23 | inactive | inactive |  |
| O=C(c1ccccc1)c1ccc(O)c(O)c1O | inactive | inactive |  |
| O=C1c2ccccc2Cc2ccccc21 | inactive | inactive |  |
| O=c1cc2oc3cc(O)c(-c4ccc(O)cc4O)cc3nc-2cc1-c1ccc(O)cc1O | inactive | inactive |  |
| O=c1cc(-c2ccc(O)cc2)oc2cc(O)cc(O)c12 | inactive | inactive |  |
| O=C(c1ccccc1)c1ccccc1 | inactive | inactive |  |
| COc1ccc(C(=O)c2cc(OC)cc(OC)c2)cc1 | inactive | inactive |  |
| O=C(/C=C/c1cccc(O)c1)c1ccccc1 | inactive | inactive |  |
| Oc1ccc(Cc2ccc(O)cc2)cc1 | inactive | inactive |  |
| O=C(O)c1ccccc1O | Active | Active |  |
| Oc1ccc(/C=C/c2cc(O)cc(O)c2)cc1 | Active | Active |  |
| CC(Cc1ccc(O)c(O)c1)C(C)Cc1ccc(O)c(O)c1 (stereo unspecified) | inactive | inactive |  |
| COc1cc(/C=C/C(=O)NCc2cccc(CNC(=O)/C=C/c3ccc(O)c(OC)c3)c2)ccc1O | inactive | inactive |  |
| O=C(/C=C/c1ccc(O)c(O)c1)O[C@H](Cc1ccc(O)c(O)c1)C(=O)O | inactive | inactive |  |
| COc1ccc2[nH]cc(CCNC(C)=O)c2c1 | Active | Active | inactive |
| COc1ccc(/C=C/C(=O)CC(=O)/C=C/c2ccc(OC)c(OC)c2)cc1OC | inactive | inactive |  |
| O=c1c(O)c(-c2ccc(O)c(O)c2)oc2cc(O)cc(O)c12 | inactive | inactive |  |
| COc1ccc2c(c1)c(CC(=O)O)c(C)n2C(=O)c1ccc(Cl)cc1 | inactive | inactive |  |
| O=C(c1ccccc1O)c1ccccc1O | inactive | inactive |  |
| CN(C)[C@@H]1C(O)=C(C(=O)NCN2CCCC2)C(=O)[C@@]2(O)C(O)=C3C(=O)c4c(O)cccc4[C@@](C)(O)[C@H]3C[C@@H]12 | inactive | inactive |  |
| COc1cccc(C=O)c1O | inactive | inactive |  |
| O=C1C(Cl)=C(Cl)C(=O)C(Cl)=C1Cl | inactive | inactive |  |
| O=c1c(-c2ccc(O)cc2)coc2cc(O)cc(O)c12 | inactive | inactive |  |

| Structure (SMILES) | Activity [1] | Activity [2] | inhibition [3] |
| --- | --- | --- | --- |
| O=C(c1ccc(O)cc1)c1ccc(O)cc1 | inactive | inactive |  |
| COc1ccc(/C=C/C(=O)c2cccc(N)c2)cc1OC | inactive | inactive |  |
| O=c1c(O)c(-c2cc(O)c(O)c(O)c2)oc2cc(O)cc(O)c12 | inactive | inactive |  |
| COc1ccc(/C=C/C(=O)c2ccccc2)cc1OC | inactive | inactive |  |
| O=C(/C=C/c1ccccc1)c1ccccc1 | inactive | inactive |  |
| CCN(CC)c1ccc2c(-c3ccccc3C(C)=O)c3ccc(=[N+](CC)CC)cc-3oc2c1 | Active | Active |  |
| CC(=O)c1ccccc1 | inactive | inactive |  |
| O=Cc1c[nH]c2ccccc12 | inactive | inactive |  |
| COc1ccc(/C=C/c2ccc(/C=C/c3ccc(OC)c(OCc4ccccc4)c3)c(Br)c2)cc1OCc1ccccc1 | Active | Active |  |
| COc1ccc(/C=C/c2cc(OC)cc(OC)c2)cc1 | inactive | inactive |  |
| COc1cc(/C=C/C(=O)NCCCCCCCCNC(=O)/C=C/c2ccc(O)c(OC)c2)ccc1O | inactive | inactive |  |
| Nc1ccc2nc3ccc(N)cc3[s+]c2c1 | inactive | inactive |  |
| O=C1C[C@@H](c2ccc(O)cc2)Oc2cc(O)cc(O)c21 | inactive | inactive |  |
| O=C(O)C(=O)Cc1c[nH]c2ccccc12 | Active | Active |  |
| C=C1c2c(Cl)ccc(O)c2C(=O)C2=C(O)[C@]3(O)C(=O)C(C(N)=O)=C(O)[C@@H](N(C)C)[C@@H]3[C@@H](O)[C@H]12.O=C(O)c1cc(S(=O)(=O)O)ccc1O | Active | Active |  |
| OCCN1CCN(CCCN2c3ccccc3Sc3ccc(Cl)cc32)CC1 | inactive | inactive |  |
| Cc1ccc2ccc3ccc(C)nc3c2n1 | Active | Active |  |
| CN(C)c1ccc2nc3ccc(=[N+](C)C)cc-3sc2c1 | inactive | inactive |  |
| COc1cc(/C=C/C(=O)c2cccc(N)c2)ccc1O | inactive | inactive |  |
| COc1cc(/C=C/C(=O)NCCNC(=O)/C=C/c2ccc(O)c(OC)c2)ccc1O | inactive | inactive |  |
| Nc1c2ccccc2nc2ccccc12 | Active | Active |  |
| O=S(=O)(O)c1cc(S(=O)(=O)O)c2c(/N=N/c3ccccc3)c(O)ccc2c1 | inactive | inactive |  |
| N[C@@H](Cc1c[nH]c2ccccc12)C(=O)O | Active | Active | inactive |
| O=c1c(O)c(-c2ccc(O)cc2)oc2cc(O)cc(O)c12 | inactive | inactive |  |
| O=S1(=O)OC(c2ccc(O)cc2)(c2ccc(O)cc2)c2ccccc21 | inactive | inactive |  |
